According to PubChem BioAssay (NCI):
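The compound was tested at five concentrations on cells cultured in 96-well plates, with a 48-hour exposure period. Definition used: TGI = concentration required for complete inhibition of growth.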

Experiments:
Experiment in all cases: NCI anticancer screen, dose series, 48 h
MALME-3M melanoma = system: MALME-3M melanoma
UO-31 renal = system: UO-31 renal
SNB-75 CNS = system: SNB-75 CNS
SK-MEL-5 melanoma = system: SK-MEL-5 melanoma
SK-OV-3 ovarian = system: SK-OV-3 ovarian
KM12 colon = system: KM12 colon
MDA-MB-435 = system: MDA-MB-435
SR leukemia = system: SR leukemia
HOP-62 NSCLC = system: HOP-62 NSCLC
ACHN renal = system: ACHN renal
RXF 393 renal = system: RXF 393 renal
EKVX NSCLC = system: EKVX NSCLC
NCI-H226 lung = system: NCI-H226 lung
SK-MEL-28 melanoma = system: SK-MEL-28 melanoma
MCF7 breast = system: MCF7 breast
T-47D breast = system: T-47D breast
K-562 leukemia = system: K-562 leukemia
OVCAR-3 ovarian = system: OVCAR-3 ovarian
OVCAR-4 ovarian = system: OVCAR-4 ovarian

SMILES | TGI (MALME-3M melanoma) | TGI (UO-31 renal) | TGI (SNB-75 CNS) | TGI (SK-MEL-5 melanoma) | TGI (SK-OV-3 ovarian) | TGI (KM12 colon) | TGI (MDA-MB-435) | TGI (SR leukemia) | TGI (HOP-62 NSCLC) | TGI (ACHN renal) | TGI (RXF 393 renal) | TGI (EKVX NSCLC) | TGI (NCI-H226 lung) | TGI (SK-MEL-28 melanoma) | TGI (MCF7 breast) | TGI (T-47D breast) | TGI (K-562 leukemia) | TGI (OVCAR-3 ovarian) | TGI (OVCAR-4 ovarian)
Cc1cn(C2CC(N=[N+]=[N-])C(COP(=O)(O)OCC3OC(n4cc(F)c(=O)[nH]c4=O)CC3O)O2)c(=O)[nH]c1=O (stereo not given) | > 20.2 µM | > 100 µM | 21.6 µM | > 100 µM | > 100 µM | > 45.5 µM | > 100 µM | > 100 µM | > 100 µM | > 100 µM | > 100 µM | 22.7 µM | > 100 µM | > 100 µM | > 100 µM | > 100 µM | > 65.7 µM | > 100 µM | 
Cc1ccc(S(=O)(=O)N/N=C2/CCC3(O)CC2(C)CCC2[C@H]3CC2(C)C)cc1 (stereo not given in full) | > 100 µM | 68.6 µM | 87.3 µM | 33.1 µM | > 100 µM | > 100 µM | 57.7 µM | > 100 µM | > 100 µM | > 100 µM |  | > 100 µM | 70.9 µM | 61.2 µM | > 100 µM | > 100 µM | 90.7 µM | > 100 µM | > 100 µM
Cc1cc(NS(=O)(=O)c2ccc(N=[N+]([O-])c3ccc(S(=O)(=O)Nc4cc(C)on4)cc3)cc2)no1 | > 100 µM | > 100 µM | > 100 µM | > 100 µM | > 100 µM |  | > 100 µM | > 100 µM | > 100 µM | > 100 µM | > 100 µM | > 100 µM | > 100 µM |  | > 100 µM | > 100 µM | > 100 µM | > 100 µM | > 100 µM
CC(=O)N1C(Nc2nccs2)CCN1c1ccccc1 (stereo not given) | > 10 µM |  | > 10 µM | > 10 µM |  |  | > 10 µM | > 10 µM | > 10 µM | > 10 µM | > 10 µM | > 10 µM | > 10 µM | > 10 µM | > 10 µM | > 10 µM | > 10 µM | > 10 µM | > 10 µM
CC(C)(O)c1cc2c(cc1C(C)(C)O)-c1ccccc1-2 | > 100 µM |  | > 100 µM | > 100 µM |  | > 100 µM | > 100 µM | > 100 µM |  | > 100 µM | > 100 µM | > 100 µM | > 100 µM | > 100 µM | > 100 µM | > 100 µM | > 100 µM | > 100 µM | > 100 µM
Cc1cc(O)c(/C=N/C(=S)Nc2ccc(S(N)(=O)=O)cc2)c(=O)o1 |  | > 100 µM | > 100 µM | > 100 µM | > 100 µM | > 100 µM | > 100 µM |  | > 100 µM | > 100 µM | > 100 µM | > 100 µM | > 100 µM | > 100 µM | > 100 µM | > 100 µM |  | > 100 µM | > 100 µM
Nc1ccccc1C(=O)N=Nc1c(O)[nH]c2ccccc12 | > 100 µM | > 100 µM | 81 µM | > 100 µM | > 100 µM | > 100 µM | > 100 µM | > 100 µM | > 100 µM | > 100 µM | > 100 µM | > 100 µM | > 100 µM |  | > 100 µM | > 100 µM | > 100 µM | > 100 µM | > 100 µM
Cc1nn(C(=O)c2ccncc2)c2c1C(c1ccccc1[N+](=O)[O-])SC(N)=N2 (stereo not given) | > 10 µM |  | > 10 µM | > 10 µM |  | > 10 µM | > 10 µM | > 10 µM | > 10 µM | > 10 µM | > 10 µM | > 10 µM | > 10 µM | > 10 µM | > 10 µM | > 10 µM | > 10 µM | > 10 µM | > 10 µM
C=C1C(=O)O[C@H]2C1C[C@H](O)[C@@]1(C)OC1CC[C@@]1(C)O[C@H]21 (stereo not given in full) | 27.4 µM | 31 µM | > 100 µM | 35.4 µM | > 100 µM | 55.1 µM | 53.2 µM | 40.5 µM | 73.3 µM | 34.2 µM | 46.9 µM | 38.4 µM |  | 35.9 µM | 29.5 µM | 36.4 µM | 19.7 µM |  | 29.6 µM
CCCc1nc2c(n1CC)C(=O)c1ccccc1C2=O | 60.5 µM |  | > 100 µM | 88.7 µM | > 100 µM | > 100 µM | 32.3 µM | > 100 µM | > 100 µM | > 100 µM | 69.1 µM |  | > 100 µM | > 100 µM | > 100 µM | > 100 µM | > 100 µM | > 100 µM | > 100 µM
CCOC(=O)c1c[nH]c(C(=O)C=[N+]=[N-])c1C1CCN(CC)C1=S (stereo not given) | > 100 µM | > 100 µM | > 100 µM | > 100 µM | > 100 µM | > 100 µM | > 100 µM |  | > 100 µM | > 100 µM | > 100 µM | > 100 µM |  | > 100 µM | > 100 µM | > 100 µM | > 100 µM | > 100 µM | > 100 µM
CC1=CCC(C(C)(C)NC(=O)c2ccccc2)C/C1=N/O (stereo not given) |  | > 100 µM | > 100 µM | > 100 µM | > 100 µM | > 100 µM | > 100 µM |  | > 100 µM |  |  | > 100 µM |  | > 100 µM | > 100 µM | > 100 µM | > 100 µM | > 100 µM | > 100 µM
C[C@@H]1CC[C@H]2[C@H](C)C(OC3O[C@@H]4O[C@@]5(C)CC[C@H]6[C@H](C)CC[C@@H]([C@@H]3C)[C@@]46O5)O[C@@H]3O[C@@]4(C)CC[C@@H]1[C@]32O4 (stereo not given in full) | > 100 µM |  | > 100 µM | > 100 µM | > 100 µM | > 100 µM | > 100 µM | > 100 µM | > 100 µM | > 100 µM |  | > 100 µM | > 100 µM | > 100 µM | > 100 µM | > 100 µM | > 100 µM | > 100 µM | > 100 µM
Cn1nnc2c3c(N(CCO)CCO)ccnc3ccc21 | > 100 µM | > 100 µM | > 100 µM | > 100 µM | > 100 µM | > 100 µM | > 100 µM | > 100 µM | > 100 µM | > 100 µM | > 100 µM | > 100 µM |  |  | > 100 µM | > 100 µM | > 100 µM | > 100 µM | > 100 µM
